This note sets out measurements from ChEMBL document CHEMBL5030552, “Computational Design of Potent D-Peptide Inhibitors of SARS-CoV-2” (J Med Chem, 2021).

By IC50 is commonly meant the concentration that gives 50% inhibition.

For assay [1], the system named is SARS-CoV-2. As to the kind of experiment: Antiviral activity against SARS-CoV-2 B.1.351 variant assessed as neutralization viral infection in Vero cells by measuring cytopathic effect incubated for 4 days by crystal violet staining based assay. Conditions: Severe acute respiratory syndrome coronavirus 2, B.1.351, Vero, 96 h. It is filed as functional, organism-based.

Assay [2] has as its system SARS-CoV-2. As to the kind of experiment: Antiviral activity against SARS-CoV-2 B.1.1.7 variant assessed as neutralization viral infection in Vero cells by measuring cytopathic effect incubated for 4 days by crystal violet staining based assay. Format: functional, organism-based. Conditions: Severe acute respiratory syndrome coronavirus 2, B.1.1.7, Vero, 96 h. On the technique in general: Damage to the host cells serves as the signal in cytopathic effect assays.

Consider `CC[C@@H](C)[C@@H](NC(=O)CNC(=O)[C@@H](CC(C)C)NC(=O)CNC(=O)[C@@H](CCCCN)NC(=O)CNC(=O)[C@@H](CC(=O)O)NC(=O)[C@@H](Cc1ccccc1)NC(=O)[C@H](N)CCCNC(=N)N)C(=O)N[C@H](Cc1ccc(O)cc1)C(=O)N[C@H](CCC(N)=O)C(=O)N[C@H](Cc1ccc(O)cc1)C(=O)N[C@H](CCSC)C(=O)N[C@H](CCC(=O)O)C(=O)N[C@H](CCC(=O)O)C(=O)N[C@@H](C(=O)N[C@H](CCC(=O)O)C(=O)N[C@H](Cc1cnc[nH]1)C(=O)N[C@H](C)C(=O)N[C@H](C)C(=O)N[C@H](CO)C(=O)N[C@H](CCCNC(=N)N)C(=O)N[C@H](Cc1ccccc1)C(=O)N[C@H](C)C(=O)N[C@H](Cc1ccc(O)cc1)C(=O)N[C@H](Cc1ccccc1)C(=O)N[C@H](Cc1ccccc1)C(=O)N[C@H](Cc1ccc(O)cc1)C(=O)N[C@H](CCC(N)=O)C(=O)N[C@H](Cc1cnc[nH]1)C(=O)N[C@H](CC(C)C)C(=O)N[C@H](C)C(=O)O)[C@H](C)CC`, for which the 50% inhibitory concentration (IC50) in the assay with SARS-CoV-2 [1] was found to be 11.1 µM; with SARS-CoV-2 [2], 33.4 µM.

In the case of `CC[C@@H](C)[C@@H](NC(=O)[C@@H](Cc1cnc[nH]1)NC(=O)[C@H](NC(=O)[C@@H](CCC(=O)O)NC(=O)[C@@H](CCC(=O)O)NC(=O)[C@@H](CCSC)NC(=O)[C@@H](CC(C)C)NC(=O)[C@@H](C)NC(=O)[C@@H](Cc1ccc(O)cc1)NC(=O)[C@@H](CC(C)C)NC(=O)[C@@H](C)NC(=O)[C@H](NC(=O)[C@@H](CCC(N)=O)NC(=O)[C@H](N)CC(C)C)[C@H](C)O)[C@H](C)CC)C(=O)N[C@H](C)C(=O)N[C@H](C)C(=O)N[C@H](CC(C)C)C(=O)N[C@H](CCC(=O)O)C(=O)N[C@H](CCCCN)C(=O)N[C@@H](C(=O)N[C@H](Cc1c[nH]c2ccccc12)C(=O)N[C@@H](C(=O)N[C@H](C)C(=O)N[C@H](CC(C)C)C(=O)N[C@H](CCCNC(=N)N)C(=O)N[C@H](Cc1cnc[nH]1)C(=O)N[C@H](CCC(N)=O)C(=O)N[C@H](Cc1ccc(O)cc1)C(=O)N[C@@H](C(=O)O)[C@H](C)O)[C@H](C)O)[C@H](C)O`, the half-maximal inhibitory concentration (IC50) is 7.37 µM in the assay on SARS-CoV-2 [1] and 5.57 µM in the assay on SARS-CoV-2 [2].
